Results on 29 compounds are retold here after patent publication US8975398B2, “NAMPT inhibitors” (AbbVie Inc., priority 2012, dated 2015).

In one experiment the target is NAMPT (Homo sapiens, UniProt P43490). The experiment in a line: Time-Resolved Fluorescence Resonance Energy Transfer (TR-FRET) Binding Assay of NAMPT with PRPP. The settings on record: 2 nM NAMPT, 2 nM probe, 200 uM PRPP and 2.5 mM ATP, equilibrated 16 hours. The essentials:
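Binding measured by TR-FRET after a 16-hour equilibration meant to permit enzymatic compound modification. Substrates present at 200 uM PRPP and 2.5 mM ATP, with 2 nM enzyme, 2 nM probe, 1 nM Tb-anti-His antibody and 2% DMSO final.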
(In TR-FRET formats the signal depends on donor and acceptor labels being close together.)

Experiment [1] deals with NAMPT (human, recombinant, C-terminally His-tagged) (Homo sapiens, UniProt P43490). Nature of the experiment: Time-Resolved Fluorescence Resonance Energy Transfer (TR-FRET) Binding Assay of NAMPT. The settings on record: 6.8 nM NAMPT, 200 nM probe, equilibrated 3 hours, absence of substrates. The essentials:
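Probe displacement measured by TR-FRET (Ex 337 nm; 520/495 nm ratio) after 3 h room-temperature equilibration of compound with 6.8 nM His-tagged human NAMPT, 1 nM Tb-anti-His antibody and 200 nM Oregon Green 488 nicotinamide-site probe, pH 7.5 HEPES buffer, 2% DMSO. Control-normalized data fit four-parameter logistic for IC50.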

pIC50: −log10 of the molar value.

NAMPT (human, recombinant, C-terminally His-tagged), sequence (P43490 whole entry): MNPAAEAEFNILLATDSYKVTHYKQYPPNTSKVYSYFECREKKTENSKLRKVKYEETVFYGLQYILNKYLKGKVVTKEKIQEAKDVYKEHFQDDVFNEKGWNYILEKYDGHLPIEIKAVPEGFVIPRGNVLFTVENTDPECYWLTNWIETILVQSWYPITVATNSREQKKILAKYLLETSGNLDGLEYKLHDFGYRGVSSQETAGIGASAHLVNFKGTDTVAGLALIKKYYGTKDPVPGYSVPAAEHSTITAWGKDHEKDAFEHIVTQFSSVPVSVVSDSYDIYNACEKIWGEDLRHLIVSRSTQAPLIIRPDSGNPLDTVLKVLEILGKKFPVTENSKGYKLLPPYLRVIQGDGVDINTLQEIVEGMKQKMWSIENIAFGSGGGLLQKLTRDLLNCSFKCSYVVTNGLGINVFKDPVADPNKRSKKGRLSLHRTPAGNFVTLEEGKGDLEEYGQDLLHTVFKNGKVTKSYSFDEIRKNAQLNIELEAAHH
NAMPT, sequence (P43490 whole entry): as above

In the case of `O=C(Nc1ccc(OC2CCN(C(=O)c3ccccn3)CC2)cc1)C1CN(c2ccnnc2)C1` [Example 296, 1-(pyridazin-4-yl)-N-(4-{[1-(pyridin-2-ylcarbonyl)piperidin-4-yl]oxy}phenyl)azetidine-3-carboxamide], the pIC50 on NAMPT is 7.24; in experiment [1], 6.83.

Consider `O=C(Nc1ccc(OC2CCN(C(=O)c3ccc(Cl)cc3)CC2)cc1)C1CN(c2ccnnc2)C1` [Example 297, N-(4-{[1-(4-chlorobenzoyl)piperidin-4-yl]oxy}phenyl)-1-(pyridazin-4-yl)azetidine-3-carboxamide], for which the negative-log IC50 (pIC50) at NAMPT was 7.33; in experiment [1], 6.98.

As for `O=C(Nc1ccc(OC2CCN(C(=O)C3CCOC3)CC2)cc1)C1CN(c2ccnnc2)C1` (stereo not shown) [Example 298, 1-(pyridazin-4-yl)-N-(4-{[1-(tetrahydrofuran-3-ylcarbonyl)piperidin-4-yl]oxy}phenyl)azetidine-3-carboxamide], the values for the pIC50 (at NAMPT; in experiment [1]) were 7.21 and 6.72, respectively.

For `O=C(Nc1ccc(OC2CCN(C(=O)c3cc(F)cc(F)c3)CC2)cc1)C1CN(c2ccnnc2)C1` [Example 299, N-(4-{[1-(3,5-difluorobenzoyl)piperidin-4-yl]oxy}phenyl)-1-(pyridazin-4-yl)azetidine-3-carboxamide], the negative logarithm of the IC50 (pIC50) on NAMPT was 7.06; in experiment [1], 6.81.

In the case of `CCC(C)(C)C(=O)N1CCC(Oc2ccc(NC(=O)C3CN(c4ccnnc4)C3)cc2)CC1` [Example 300, N-(4-{[1-(2,2-dimethylbutanoyl)piperidin-4-yl]oxy}phenyl)-1-(pyridazin-4-yl)azetidine-3-carboxamide], the pIC50 on NAMPT is 7.41; in experiment [1], 7.19.

`O=C(Nc1ccc(OC2CCN(C(=O)C3CC3)CC2)cc1)C1CN(c2ccnnc2)C1` [Example 301, N-(4-{[1-(cyclopropylcarbonyl)piperidin-4-yl]oxy}phenyl)-1-(pyridazin-4-yl)azetidine-3-carboxamide]: the negative logarithm of the IC50 (pIC50) at NAMPT was 7.32; in experiment [1] it was 6.84.

For `O=C(Nc1ccc(OC2CCN(C(=O)C3CCCO3)CC2)cc1)C1CN(c2ccnnc2)C1` (stereo not shown) [Example 302, 1-(pyridazin-4-yl)-N-(4-{[1-(tetrahydrofuran-2-ylcarbonyl)piperidin-4-yl]oxy}phenyl)azetidine-3-carboxamide], the pIC50 at NAMPT was 7.32; in experiment [1], 6.82.

On to `O=C(Nc1ccc(OC2CCN(C(=O)c3cccs3)CC2)cc1)C1CN(c2ccnnc2)C1` [Example 303, 1-(pyridazin-4-yl)-N-(4-{[1-(thiophen-2-ylcarbonyl)piperidin-4-yl]oxy}phenyl)azetidine-3-carboxamide], for which the pIC50 on NAMPT is 7.81; in experiment [1] it was 7.51.

For `Cc1ccc(C(=O)N2CCC(Oc3ccc(NC(=O)C4CN(c5ccnnc5)C4)cc3)CC2)s1` [Example 304, N-[4-({1-[(5-methylthiophen-2-yl)carbonyl]piperidin-4-yl}oxy)phenyl]-1-(pyridazin-4-yl)azetidine-3-carboxamide], the values for the pIC50 (at NAMPT; in experiment [1]) were 7.62 and 7.26, respectively.

In the case of `O=C(Nc1ccc(OC2CCN(C(=O)Cc3cccc(C(F)(F)F)c3)CC2)cc1)C1CN(c2ccnnc2)C1` [Example 305, 1-(pyridazin-4-yl)-N-{4-[(1-{[3-(trifluoromethyl)phenyl]acetyl}piperidin-4-yl)oxy]phenyl}azetidine-3-carboxamide], the negative logarithm of the IC50 (pIC50) on NAMPT was 7.46; in experiment [1] it was 6.96.

As for `O=C(Nc1ccc(OC2CCN(C(=O)C3CCOCC3)CC2)cc1)C1CN(c2ccnnc2)C1` [Example 306, 1-(pyridazin-4-yl)-N-(4-{[1-(tetrahydro-2H-pyran-4-ylcarbonyl)piperidin-4-yl]oxy}phenyl)azetidine-3-carboxamide], the pIC50 was 7.33 on NAMPT and 6.95 in experiment [1].

Consider `CC[C@H](C)C(=O)N1CCC(Oc2ccc(NC(=O)C3CN(c4ccnnc4)C3)cc2)CC1` [Example 307, N-[4-({1-[(2S)-2-methylbutanoyl]piperidin-4-yl}oxy)phenyl]-1-(pyridazin-4-yl)azetidine-3-carboxamide], for which the negative logarithm of the IC50 (pIC50) at NAMPT was 7.80; in experiment [1] it was 7.42.

Take `O=C(Nc1ccc(OC2CCN(C(=O)Cc3ccccc3F)CC2)cc1)C1CN(c2ccnnc2)C1` [Example 308, N-[4-({1-[(2-fluorophenyl)acetyl]piperidin-4-yl}oxy)phenyl]-1-(pyridazin-4-yl)azetidine-3-carboxamide]: the pIC50 on NAMPT is 7.74; in experiment [1] it was 7.43.

With `CC(C)Cn1cc(-c2ccc(C(=O)NC3CN(c4cccnn4)C3)o2)cn1` [Example 309, 5-[1-(2-methylpropyl)-1H-pyrazol-4-yl]-N-[1-(pyridazin-3-yl)azetidin-3-yl]furan-2-carboxamide], the figures for the pIC50 (on NAMPT; in experiment [1]) were 9.53 and 5.38, respectively.

Take `CC(C)C(=O)N1CCC(c2ccc(NC(=O)[C@H]3CCN(c4cccnn4)C3)cc2)CC1` [Example 310, (3S)—N-{4-[1-(2-methylpropanoyl)piperidin-4-yl]phenyl}-1-(pyridazin-3-yl)pyrrolidine-3-carboxamide]: the negative logarithm of the IC50 (pIC50) on NAMPT was 8.27; in experiment [1], 6.34.

As for `O=C(Nc1ccc(C2CCN(C(=O)c3ccccc3)CC2)cc1)[C@H]1CCN(c2cccnn2)C1` [Example 311, (3S)—N-[4-(1-benzoylpiperidin-4-yl)phenyl]-1-(pyridazin-3-yl)pyrrolidine-3-carboxamide], the figures for the pIC50 (at NAMPT; in experiment [1]) were 8.40 and 7.52, respectively.

For the compound `O=C(Nc1ccc(C2CCN(C(=O)CC3CCOCC3)CC2)cc1)[C@H]1CCN(c2cccnn2)C1` [Example 312, (3S)-1-(pyridazin-3-yl)-N-{4-[1-(tetrahydro-2H-pyran-4-ylacetyl)piperidin-4-yl]phenyl}pyrrolidine-3-carboxamide], the negative-log IC50 (pIC50) is 8.05 at NAMPT and 5.95 in experiment [1].

`CC(C)(C)C(=O)N1CCC(c2ccc(NC(=O)[C@H]3CCN(c4cccnn4)C3)cc2)CC1` [Example 313, (3S)—N-{4-[1-(2,2-dimethylpropanoyl)piperidin-4-yl]phenyl}-1-(pyridazin-3-yl)pyrrolidine-3-carboxamide]: the negative-log IC50 (pIC50) at NAMPT was 8.38; in experiment [1] it was 6.66.

On to `CC(C)(C)OC(=O)N1CCC(c2ccc(C(=O)NC3CN(c4cccnn4)C3)cc2)CC1` [Example 314, tert-butyl 4-(4-{[1-(pyridazin-3-yl)azetidin-3-yl]carbamoyl}phenyl)piperidine-1-carboxylate], for which the pIC50 on NAMPT was 9.24; in experiment [1], 5.41.

On to `CC(C)Cn1cc(-c2ccc(C(=O)NC3CN(c4cccnn4)C3)s2)cn1` [Example 315, 5-[1-(2-methylpropyl)-1H-pyrazol-4-yl]-N-[1-(pyridazin-3-yl)azetidin-3-yl]thiophene-2-carboxamide], for which the pIC50 at NAMPT was 9.19; in experiment [1] it was 6.33.

With `CC(=O)N1CCC(c2ccc(NC(=O)C3CN(c4cccnn4)C3)cc2)CC1` [Example 316, N-[4-(1-acetylpiperidin-4-yl)phenyl]-1-(pyridazin-3-yl)azetidine-3-carboxamide], the pIC50 on NAMPT was 9.03; in experiment [1], 6.98.

Regarding `CCCC(=O)N1CCC(c2ccc(NC(=O)C3CN(c4cccnn4)C3)cc2)CC1` [Example 317, N-[4-(1-butanoylpiperidin-4-yl)phenyl]-1-(pyridazin-3-yl)azetidine-3-carboxamide], the results for the pIC50 (at NAMPT; in experiment [1]) were 9.00 and 7.36, respectively.

For `CCCCC(=O)N1CCC(c2ccc(NC(=O)C3CN(c4cccnn4)C3)cc2)CC1` [Example 318, N-[4-(1-pentanoylpiperidin-4-yl)phenyl]-1-(pyridazin-3-yl)azetidine-3-carboxamide], the values for the negative-log IC50 (pIC50) (on NAMPT; in experiment [1]) were 9.15 and 7.42, respectively.

Regarding `CCC(C)C(=O)N1CCC(c2ccc(NC(=O)C3CN(c4cccnn4)C3)cc2)CC1` (stereo not shown) [Example 319, N-{4-[1-(2-methylbutanoyl)piperidin-4-yl]phenyl}-1-(pyridazin-3-yl)azetidine-3-carboxamide], the negative-log IC50 (pIC50) at NAMPT was 9.13; in experiment [1], 7.60.

As to `CC(C)CC(=O)N1CCC(c2ccc(NC(=O)C3CN(c4cccnn4)C3)cc2)CC1` [Example 320, N-{4-[1-(3-methylbutanoyl)piperidin-4-yl]phenyl}-1-(pyridazin-3-yl)azetidine-3-carboxamide], the pIC50 at NAMPT was 9.21; in experiment [1], 7.58.

Turning to `CCCCCC(=O)N1CCC(c2ccc(NC(=O)C3CN(c4cccnn4)C3)cc2)CC1` [Example 321, N-[4-(1-hexanoylpiperidin-4-yl)phenyl]-1-(pyridazin-3-yl)azetidine-3-carboxamide], the negative logarithm of the IC50 (pIC50) is 9.06 at NAMPT and 7.41 in experiment [1].

In the case of `CCCC(C)C(=O)N1CCC(c2ccc(NC(=O)C3CN(c4cccnn4)C3)cc2)CC1` (stereo not shown) [Example 322, N-{4-[1-(2-methylpentanoyl)piperidin-4-yl]phenyl}-1-(pyridazin-3-yl)azetidine-3-carboxamide], the pIC50 at NAMPT was 9.07; in experiment [1] it was 7.54.

Take `CCC(C)CC(=O)N1CCC(c2ccc(NC(=O)C3CN(c4cccnn4)C3)cc2)CC1` (stereo not shown) [Example 323, N-{4-[1-(3-methylpentanoyl)piperidin-4-yl]phenyl}-1-(pyridazin-3-yl)azetidine-3-carboxamide]: the negative logarithm of the IC50 (pIC50) on NAMPT is 9.05; in experiment [1], 7.60.

On to `CC(C)CCC(=O)N1CCC(c2ccc(NC(=O)C3CN(c4cccnn4)C3)cc2)CC1` [Example 324, N-{4-[1-(4-methylpentanoyl)piperidin-4-yl]phenyl}-1-(pyridazin-3-yl)azetidine-3-carboxamide], for which the negative logarithm of the IC50 (pIC50) at NAMPT was 8.98; in experiment [1] it was 7.33.

As usually defined, the pIC50 is −log10 of the IC50, conventionally taken in molar units.
